US20070248599A1 (priority 2006, published 2007)

T1: ApoER2 (Mus musculus, UniProt Q924X6)
T1 construct: expressed in transfected cells; host or cells: HEK293 (inferred; the pull-down text names HEK293 lysates only for X11-transfected cells)
T1 sequence (Q924X6 29-996): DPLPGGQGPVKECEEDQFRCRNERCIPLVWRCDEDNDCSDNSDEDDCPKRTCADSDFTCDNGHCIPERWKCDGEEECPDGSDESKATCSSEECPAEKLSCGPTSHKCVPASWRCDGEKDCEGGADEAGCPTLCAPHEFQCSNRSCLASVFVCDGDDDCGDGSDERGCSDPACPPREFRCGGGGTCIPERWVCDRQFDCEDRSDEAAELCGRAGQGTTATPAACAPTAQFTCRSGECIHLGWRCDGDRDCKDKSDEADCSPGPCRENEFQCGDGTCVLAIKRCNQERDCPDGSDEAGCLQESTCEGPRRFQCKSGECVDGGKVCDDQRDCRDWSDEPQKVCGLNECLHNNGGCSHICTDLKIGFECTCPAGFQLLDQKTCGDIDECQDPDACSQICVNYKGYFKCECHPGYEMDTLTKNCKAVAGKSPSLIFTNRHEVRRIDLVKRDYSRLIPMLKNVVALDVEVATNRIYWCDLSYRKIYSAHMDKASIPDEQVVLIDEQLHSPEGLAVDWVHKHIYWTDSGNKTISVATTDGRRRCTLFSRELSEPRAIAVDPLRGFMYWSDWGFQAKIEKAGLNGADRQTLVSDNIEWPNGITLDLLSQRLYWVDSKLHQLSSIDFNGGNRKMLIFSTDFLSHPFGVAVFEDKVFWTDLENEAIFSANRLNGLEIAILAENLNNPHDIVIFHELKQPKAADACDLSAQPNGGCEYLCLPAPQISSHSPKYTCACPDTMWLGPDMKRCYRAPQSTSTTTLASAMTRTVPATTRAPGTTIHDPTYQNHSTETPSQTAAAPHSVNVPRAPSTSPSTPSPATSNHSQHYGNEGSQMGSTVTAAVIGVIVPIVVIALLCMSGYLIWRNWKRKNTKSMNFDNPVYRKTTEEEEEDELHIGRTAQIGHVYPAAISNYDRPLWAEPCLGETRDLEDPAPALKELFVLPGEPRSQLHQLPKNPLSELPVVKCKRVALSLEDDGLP


How the values were obtained:
N2a-APPsw cells [1] = assay: Cellular Aβ production in N2a-APPsw cells (Aβ40 ELISA of conditioned medium); type: cell-based, mouse
Experimental: Quantification of β-Amyloid40, Neuro-2a cell stably overexpressing APPsw695 was used for detecting of β-Amyloid40. N2a-APPsw cells were grown in Dulbecco's Modified Eagle's medium (DMED) containing 10% fetal bovine serum, 100 U/mL penicillin, and 100 μg/mL streptomycin (GibcoBUR) with 80 μg/mL G418. Cells were cultured in 24-well plates one day before treatment. Transient transfections were done using FeGENE6 (Roche), fresh Optimum medium (Invitrogen) were supplied 5 h after transfection. Same concentration purified Apolipoprotein was added into the fresh medium. Conditioned medium was collected 24 h later. Aβ40 was quantified with sandwich ELISA by using Aβ40 ELISA Kit (Biosource). At least three times assays were done for each condition.
(§1) Cellular Aβ40 production. Neuroblastoma N2a-APPsw cells (from Dr. Riqiang Yan, Lerner Research Institute, Cleveland, Ohio) were cultured in 24-well plates in Dulbecco's Modified Eagle's medium (DMED) containing 10% fetal bovine serum, 100 U/mL penicillin, and 100 μg/mL streptomycin (GibcoBUR) with 80 μg/mL G418 one day before use. Transient transfections were done using FeGENE6 (Roche), fresh Optimum medium (Invitrogen) were supplied 5 h after transfection. Apolipoproteins were added in the fresh medium at 10 μg/mL. Conditioned medium was collected 24 h later. Aβ40 was determined in tripcates using Aβ40 ELISA Kit (Biosource). For studying the effect of PTB domain on Aβ production, N2a-APPsw cells were transfected with (0.4 μg/per well for 24 well plate) of PTB-containing vector before subjected to the above procedure.

[2] = system: N2a-APPsw cells transfected with ApoER2 and β-secretase; assay: Internalization of cell surface proteins (biotinylation, Western blot); type: cell-based, mouse
Experimental: Internalization of cell surface proteins. N2a-APPsw cells were transiently tranfected with ApoER2 and β-secretase with Lipfectamine 2000. […] Cells were then placed on ice, rinsed in cold PBS and incubated in PBS containing 1.5 mg/mL sulfo-NHS-LC-biotin (Pierce) for 20 min at 4° C. Cells were rinsed twice in PBS and lysed in 800 μl PBS containing 0.1% SDS, 1% NP40 and a complete protease inhibitor cocktail. Total protein concentration was determined by immunoblotting from an aliquot of 50 μl cell lysate. Biotinylated proteins were recovered with NeutrAvidin agarose (50 μl; Pierce), rinsed three times, eluted in 20 μl SDS-sample buffer at boiling temperature and used for Western-blot. Quantity of bands was determined by optical scanning instruments specified above. For the determination of internalized proteins, cells were prepared as above, rinsed in PBS and then incubated with cold 1.5 mg/mL cleavable biotin reagent in PBS (EZ-Link Sulfo-NHS-SS biotin, Pierce) for 20 min at 4° C. […] Cells were then lysed in 800 μl PBS containing 0.1% SDS, 1% NP40 and a complete protease inhibitor cocktail. After centrifugation, biotinylated proteins were retrieved by incubation with NeutrAvidin agarose (50 μl; Pierce). Isolated proteins were rinsed in buffer three times and boiled in 20 μl sample buffer for Western blots.

N2a-APPsw cells [3] = assay: Cellular Aβ production in N2a-APPsw cells (Aβ40 ELISA of conditioned medium); type: cell-based, mouse; remark: listed apart in the source
[4] = system: N2a-APPsw cells transfected with ApoER2 and β-secretase; assay: Internalization of cell surface proteins (biotinylation, Western blot); type: cell-based, mouse; conditions: Western blot of conditioned medium (FIG. 6D)
[5] = biological target: LDL (low-density lipoprotein) lipid receptor (Homo sapiens, UniProt P01130); conditions: cited from earlier work
Chain of LDL (low-density lipoprotein) lipid receptor (P01130 22-860): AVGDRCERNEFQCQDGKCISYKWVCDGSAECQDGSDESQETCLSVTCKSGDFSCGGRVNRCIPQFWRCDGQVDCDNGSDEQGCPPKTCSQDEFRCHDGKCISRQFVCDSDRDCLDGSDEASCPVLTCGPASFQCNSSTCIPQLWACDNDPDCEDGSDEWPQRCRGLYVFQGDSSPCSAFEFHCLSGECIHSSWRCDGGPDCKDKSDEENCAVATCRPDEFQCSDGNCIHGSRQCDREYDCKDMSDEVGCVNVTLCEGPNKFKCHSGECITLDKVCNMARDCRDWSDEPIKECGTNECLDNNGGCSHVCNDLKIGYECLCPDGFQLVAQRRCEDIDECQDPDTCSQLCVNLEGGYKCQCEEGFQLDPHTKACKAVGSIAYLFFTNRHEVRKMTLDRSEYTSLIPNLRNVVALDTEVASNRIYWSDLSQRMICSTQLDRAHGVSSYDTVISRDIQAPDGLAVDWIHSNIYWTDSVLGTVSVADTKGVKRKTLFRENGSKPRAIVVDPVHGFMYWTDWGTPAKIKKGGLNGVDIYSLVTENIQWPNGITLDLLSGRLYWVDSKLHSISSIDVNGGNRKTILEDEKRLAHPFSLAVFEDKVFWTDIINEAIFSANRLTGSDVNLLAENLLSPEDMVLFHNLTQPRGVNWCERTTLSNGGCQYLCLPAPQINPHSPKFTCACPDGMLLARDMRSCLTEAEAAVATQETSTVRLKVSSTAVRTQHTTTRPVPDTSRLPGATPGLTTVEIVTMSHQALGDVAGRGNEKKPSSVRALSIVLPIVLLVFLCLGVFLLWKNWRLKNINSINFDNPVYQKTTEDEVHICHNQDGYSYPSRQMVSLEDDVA

endogenous X11α/β = assay: Effect of transfected PTB domain of X11α on ApoE-induced Aβ production; type: cell-based, mouse; conditions: PTB expression in N2a-APPsw cells, 0.4 μg vector per well (FIG. 9B)
Experimental: as §1

ApoER2 = biological target: T1, ApoER2; assay: GST pull-down of ApoER2 by X11α domains; type: binding, murine; conditions: GST fusions of X11α domains, Western blot (FIG. 8A)
From the text: cDNA vectors. Vectors for human β-secretase and Swedish mutant of APP were previously described (Lin et al., 2000). Vectors for human X11α, X11β, human LRP, and murine ApoER2 were kindly provided by Dr. Chistopher C J Miller (Kings College London, UK), Dr. Ben Margolis (University of Michigan), Dr. Guojun Bu (Washington University), and Dr. Johannes Nimpf (University of Vienna, Austria) respectively. PCR was used for transferring murine ApoER2 gene into pcDNA6 with V5-His-Tag at the C-terminus and for creating mutants of murine ApoER2 in pcDNA6. PTB domain of X11α (residue 457-751) were amplified by PCR and inserted into pcDNA6. GST constructs of GST-PTB (457-751), GST-PDZ (650-837) of X11α and GST constructs of ApoER2 cytosolic domain GST-ApoC1 (881-996), GST-ApoC2 (881-925), GST-ApoC3 (926-996) and GST-APPc (650-695) were amplified by PCR and inserted into plasmid pGEX6.1 (Pharmacia). All constructs were verified by sequencing. GST fusion proteins were produced in Escherichia coli BL21 strain and purified as described previously (He et al., 2003).
Pull-down assays. For GST pull down, GST fusion proteins were retrieved as previously described (He et al., 2003). The amount of protein recovered with glutathione beads was determined using Bio-Rad Protein Assay and diluted to yield a concentration of 1 mg protein/mL of beads. […]

[6] = 10 μg/mL, internalization 15 min at 37° C. (FIG. 6B)

| Molecule | Aβ production in cells transfected with ApoER2 versus without (N2a-APPsw cells [1]; N2a-APPsw cells (FIG. 5D)) | Aβ40 and Aβ42 production, ApoE4 in native human VLDL versus ApoE2 and ApoE3 (N2a-APPsw cells [1]; VLDL from individual human plasma, N2a-APPsw cells (FIG. 5C)) | Aβ production (N2a-APPsw cells [1]; recombinant ApoE forms at 10 μg/ml, N2a-APPsw cells (FIG. 5B)) | total amounts of ApoER2, APP and β-secretase in the cell lysates ([2]; 10 μg/mL, 2 h) | decrease of remaining cell-surface β-secretase ([2]; 10 μg/mL, 2 h, compared to controls (FIG. 6A)) [%] | increase of intracellular APP [2, 6] [fold] | increase of intracellular ApoER2 [2, 6] | increase of intracellular β-secretase [2, 6] | intracellular APP C-terminal fragment C99 ([2]; Western blot, over the control (FIG. 6C)) | Aβ40 increase in cells transfected with ApoER2 versus blank vectors (N2a-APPsw cells [3]; 5 μg/mL, N2a APPsw cells, p<0.05 (FIG. 4)) | Aβ40 levels in medium (N2a-APPsw cells [3]; 5 μg/mL, blank vector transfected N2a APPsw cells vs control (FIG. 4)) | Aβ production (N2a-APPsw cells [3]; each at 5 μg/mL, 24 h, N2a-APPsw cells (FIG. 5B legend)) | APP ectodomain generated by ∝-secretase, s∝-APP [4] | normal receptor binding activity [5] [%] | ApoE4-induced Aβ increase (endogenous X11α/β) | pull down of ApoER2 from the cell lysate (ApoER2) |
| --- | --- | --- | --- | --- | --- | --- | --- | --- | --- | --- | --- | --- | --- | --- | --- | --- |
| ApoE4: ApoE isoform with arginine substituted for cysteine at residue 112; from Biodesign / Alpha Diagnostic | produced more Aβ | stimulates higher Aβ production | increased Aβ production (FIG. 5B) with the highest response | remained about the same | ~35 | ~4 | small increases | small increases | significantly increased | increase of Aβ40 at a greater extent | increased over that in the control cells | increased Aβ production | reduction | 100 |  |  |
| PTB domain: PTB domain of X11α (residue 457-751), expressed from pcDNA6 as dominant-negative inhibitor or as GST fusion (protein, left off: a dimerising Fc or GST) DGIIFAANYLGSTQLLSDKTPSKNVRMMQAQEAVSRIKMAQKLAKSRKKAPEGESQPMTEVDLFISTQRIKVLNADTQETMMDHPLRTISYIADIGNIVVLMARRRMPRSNSQENVEASHPSQDGKRQYKMICHVFESEDAQLIAQSIGQAFSVAYQEFLRANGINPEDLSQKEYSDLLNTQDMYNDDLIHFSKSENCKDVFIEKQKGEILGVVIVESGWGSILPTVIIANMMHGGPAEKSGKLNIGDQIMSINGTSLVGLPLSTCQSIIKGLKNQSRVKLNIVRCPPVTTVLIR |  |  |  |  |  |  |  |  |  |  |  |  |  |  | largely abolished | pull down ApoER2 |
